The test system of one experiment is ERK. The experiment is described as follows: Western blotting of ERK phosphorylation in treated mesenchymal stem cells. Format: cell-based, human. Particulars: FIG. 3. As for the experimental part:
60 cc of an expanding solution (obtained by adding 30 mL of 1% lidocaine, 30 mL of 0.5% bupivacaine, 10 mL of 4.2% sodium bicarbonate and 1 mg of epinephrine to 1 L of normal water for injection) was applied to the periphery of a navel under sterile conditions. Fats were suctioned using Mercedes 3 mm×9 cm Aspiration Luer Lock Cannula (Byron Medical, Tucson, Ariz.), and then instantly kept on ice. Since a lipoaspirate filtered through a 250 mm sieve included an anesthetic and a contaminant such as blood, the lipoaspirate was washed with phosphate buffered saline (PBS) to remove the anesthetic and the contaminant. […]
Cells were washed once with PBS, and lysed for approximately 20 minutes in a lysis buffer (Cell Signaling Technology) containing 20 mM Tris (pH 7.5), 150 mM NaCl, 1 mM Na2-EDTA, 1 mM EGTA, 1% Triton, 2.5 mM sodium pyrophosphate, 1 mM β-glycerophosphate, 1 mM Na3VO4, 1 mg/ml leupeptin and 1 mM phenylmethylsulfonyl fluoride. […] A concentration of proteins was measured using a Bradford protein assay kit (Bio-Rad). A quantitative protein was separated on a 12% sodium dodecyl sulfate-polyacrylamide gel, and transferred to a polyvinylidene difluoride membrane (Millipore). […] After thorough washing, a band was detected using an improved chemiluminogenic reagent (GE Healthcare Life Sciences). The intensity of the band was quantified using an Image J 1.40 g software (NIH).
(Immunoblotting shows a protein as a band on a membrane.)

Experiment [1] has as its system human adipose tissue-derived mesenchymal stem cells. As to the kind of experiment: Sandwich ELISA of aggrecan expression (chondrocyte marker) in treated mesenchymal stem cells. Format: cell-based. Particulars: for induction of differentiation of mesenchymal stem cells to chondrocytes (aggrecan expression) compared with A1942: sandwich ELISA, p<0.001 vs. control, FIG. 5. The protocol:
(§1) 60 cc of an expanding solution (obtained by adding 30 mL of 1% lidocaine, 30 mL of 0.5% bupivacaine, 10 mL of 4.2% sodium bicarbonate and 1 mg of epinephrine to 1 L of normal water for injection) was applied to the periphery of a navel under sterile conditions. Fats were suctioned using Mercedes 3 mm×9 cm Aspiration Luer Lock Cannula (Byron Medical, Tucson, Ariz.), and then instantly kept on ice. Since a lipoaspirate filtered through a 250 mm sieve included an anesthetic and a contaminant such as blood, the lipoaspirate was washed with phosphate buffered saline (PBS) to remove the anesthetic and the contaminant. Collagenase I (1 mg/mL; Worthington Biochemical Corp., Lakewood, N.J.) was added to the obtained fat tissues, stirred, and then kept at 37° C. for an hour. The suspended adipose tissues were centrifuged at 1,500×g for 10 minutes, and a supernatant containing matured fat cells was discarded. The obtained stroma vascular (SV) cells were washed with 0.1% BSA, suspended in an M-199 medium (including 12.8% fetal bovine serum, heparin, 10,000 U/mL penicillin G, 25 mg/mL amphotericin B, and 10,000 mg/mL streptomycin), plated on a gelatin-coated tissue culture flask, and then incubated. After 24 hours, the tissue culture flask was washed to remove non-attached cells, and the incubation was continued.
[…] In this case, the mesenchymal stem cells were incubated for 11 days while replacing a medium including the compound of Formula 1 with a fresh one once every 3 days.
A capture antibody was bound to the bottom of each well, and the plate was then incubated overnight at 4° C. The plate was washed twice with PBS (Gibco), and treated with 100 μl of PBS containing 3% BSA at room temperature for 2 to 3 hours. The plate was washed twice with PBS, and a cell lysate was added to each well. Then, the plate was incubated at room temperature for 2 hours under a wet atmosphere. The plate was washed four times with PBS containing 0.02% Tween-20 (Sigma). A detector antibody was added to the plate, and the plate was then incubated at room temperature for 2 hours under a wet atmosphere. Thereafter, the plate was incubated with a peroxidase-conjugated secondary antibody at 37° C. for an hour. Finally, the plate was treated with 100 μl of a tetramethylbenzidine (TMB) solution (Sigma) as a substrate, and 25 μl of 0.1 M H2SO4 was added as a terminating buffer to stop the reaction. Immediately after the reaction, the absorbance was measured at 450 nm using an ELISA plate reader (Bio-Rad).
For orientation: ELISA stands for enzyme-linked immunosorbent assay.

For experiment [2] the test system is unchanged. The experiment is described as follows: Alcian Blue dyeing of sulfated proteoglycan (quantified chondrogenesis). It counts as cell-based. Particulars: 1 μM, 11 days, optical density at 650 nm, p<0.05 vs. control, FIG. 1. The protocol: as §1, with “The obtained stroma vascular (SV) cells were washed with 0.1% BSA, suspended in an M-199 medium (including 12.8% fetal bovine serum, heparin, 10,000 U/mL penicillin G, 25 mg/mL amphotericin B, and 10,000 mg/mL streptomycin), plated on a gelatin-coated tissue culture flask, and then incubated. After 24 hours, the tissue culture flask was washed to remove non-attached cells, and the incubation was continued.” left out
Cells were first washed three times with PBS (Gibco), and then immobilized with 100% methanol (Sigma) at −20° C. for 10 minutes. […] To quantify the dyeing intensity, the dyed culture plate was washed three times with PBS, and each well was extracted with 1 ml of 6 M guanidine-HCl (Sigma) overnight at room temperature. The optical density of the extracted dye was measured at 650 nm.

Experiment [3] relates to fibronectin, α5-integrin, N-cadherin. As to the kind of experiment: Semi-quantitative RT-PCR of fibronectin, integrin α5β1 and N-cadherin in treated mesenchymal stem cells. It counts as cell-based, human. The following applies: 1 μM for 11 days, normalized to GAPDH, FIG. 4. As for the experimental part: as §1
When the mesenchymal stem cells were subcultured twice, the mesenchymal stem cells were seeded at a density of 2×10^5 cells/ml in a 60 mm plate containing the same medium as described above, and treated with the compound of Formula 1 (each of the compounds of Examples 1 to 28) at a final concentration of 10 nM, 100 nM, 1 μM, or 10 μM. In this case, the mesenchymal stem cells were incubated for 11 days while replacing a medium including the compound of Formula 1 with a fresh one once every 3 days.
Expression levels of various genes were analyzed through an RT-PCR method. Total RNA was obtained using an Ultraspect™-II RNA system (Biotecx Laboratories, Inc., USA) and an easy-BLUE™ kit (Intron Biotechnology, Seoul, South Korea). […]

Regarding `N#CC(=C(/N)Sc1ccccc1N)/C(C#N)=C(\N)Sc1ccccc1N` [Compound U0126, reference compound], in the experiment with ERK (A1942 1 μM plus U0126, 11 days), the “phosphorylation level of ERK, group treated with A1942 and U0126” value is “did not increase with time”. The “expression level of aggrecan, co-treatment with A1942” value in experiment [1] (mesenchymal stem cells treated with 1 μM A1942 + U0126, FIG. 2) is given as “reduced an expression level of the aggrecan”.
In the case of `O=S(=O)(Nc1ccc(O)cc1)c1cccc2cccnc12` [Compound A1942, Quinoline-8-sulfonic acid (4-hydroxy-phenyl)-amide], the “phosphorylation level of ERK” value with ERK (1 μM for 11 days) is given as “increased with time”. Besides, in experiment [2], the “relative absorbance (Alcian Blue) versus control” value was “approximately 3 times”. Also, in experiment [3], the “expression level of N-cadherin” value is given as “decreased with time”, the “expression level of fibronectin” value is given as “decreased with time” and the “expression level of α5-integrin” value is listed as “decreased with time”. The “expression level of aggrecan” value in experiment [1] (0.1, 0.5 and 1 μM for 11 days, FIG. 2) was “increased in a dose-dependent manner”.
For `O=S(=O)(Nc1cccc2ccc(O)cc12)c1cccc2cccnc12` [Compound A1943, Quinoline-8-sulfonic acid (7-hydroxy-naphthalen-1-yl)-amide], the “induction of differentiation of mesenchymal stem cells to chondrocytes (aggrecan expression) compared with A1942” value in experiment [1] was “at a level similar to the A1942 compound”.
Still for that read-out and setting: the entry for `CC(C)(C)c1ccc(S(=O)(=O)Nc2ccc(O)c(C(=O)O)c2)cc1` [Compound A1948, 5-(4-Tert-butyl-benzenesulfonyl-amino)-2-hydroxy-benzoic acid] is “at a level similar to the A1942 compound”; for `O=S(=O)(Nc1cccc2c(O)cccc12)c1ccc(-c2ccccc2)cc1` [Compound A1949, Biphenyl-4-sulfonic acid (5-hydroxy-naphthalen-1-yl)-amide] it is “at a level similar to the A1942 compound”; for `O=C(O)c1cc(NS(=O)(=O)c2cccc3cccnc23)ccc1O` [Compound A1944, 2-Hydroxy-5-(quinoline-8-sulfonylamino)-benzoic acid] it is “at a level similar to the A1942 compound”.
On to `Cc1ccc(S(=O)(=O)Nc2ccc(O)c3ccccc23)cc1` [Compound A1950, N-(4-hydroxy-naphthalen-1-yl)-4-methyl-benzenesulfonamide], for which the “induction of differentiation of mesenchymal stem cells to chondrocytes (aggrecan expression) compared with A1942” value in experiment [1] was “at a level similar to the A1942 compound”.

Values taken from patent publication US9068166B2, “Use of compounds for inducing differentiation of mesenchymal stem cells to chondrocytes” (Industry-Academic Cooperation Foundation Yonsei University, priority 2010, dated 2015).
